Reference: patent US11427548B2 (Arvinas Operations, Inc., priority 2015, dated 2022)
Where two headings read alike, the source gives them in different places.

Biological target: T1, Androgen Receptor (Homo sapiens, UniProt P10275)
T1 construct: endogenous in cells; host or cells: VCaP cells
T1 sequence (P10275 1-920): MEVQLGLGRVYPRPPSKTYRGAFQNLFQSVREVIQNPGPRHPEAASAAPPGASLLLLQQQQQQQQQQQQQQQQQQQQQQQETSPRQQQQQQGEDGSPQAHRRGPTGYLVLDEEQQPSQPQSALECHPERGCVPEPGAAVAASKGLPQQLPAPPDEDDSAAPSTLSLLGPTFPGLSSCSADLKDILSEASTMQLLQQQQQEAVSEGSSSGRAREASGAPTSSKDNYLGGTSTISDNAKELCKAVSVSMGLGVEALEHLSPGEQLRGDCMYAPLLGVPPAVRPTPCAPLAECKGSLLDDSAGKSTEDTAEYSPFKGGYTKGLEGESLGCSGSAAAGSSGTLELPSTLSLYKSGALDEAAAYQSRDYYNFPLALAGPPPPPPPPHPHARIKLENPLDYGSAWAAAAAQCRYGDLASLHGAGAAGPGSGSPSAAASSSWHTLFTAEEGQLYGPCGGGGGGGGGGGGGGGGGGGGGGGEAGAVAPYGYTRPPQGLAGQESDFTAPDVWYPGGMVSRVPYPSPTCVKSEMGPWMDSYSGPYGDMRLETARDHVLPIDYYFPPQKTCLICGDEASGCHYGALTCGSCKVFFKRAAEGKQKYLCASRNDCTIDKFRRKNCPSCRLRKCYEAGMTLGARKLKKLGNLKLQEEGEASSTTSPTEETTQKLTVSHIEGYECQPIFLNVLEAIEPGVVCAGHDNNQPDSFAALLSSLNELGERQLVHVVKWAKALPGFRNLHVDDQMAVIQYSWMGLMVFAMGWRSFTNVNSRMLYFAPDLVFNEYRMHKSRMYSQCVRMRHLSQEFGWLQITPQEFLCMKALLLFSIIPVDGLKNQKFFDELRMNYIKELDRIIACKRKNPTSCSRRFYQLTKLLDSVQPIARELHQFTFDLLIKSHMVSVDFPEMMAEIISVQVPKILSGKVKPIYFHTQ
Test: Androgen Receptor ELISA assay (PathScan AR ELISA) in VCaP cells: AR degradation, Dmax and DC50
Type: cell-based
Procedure: 1. Androgen Receptor ELISA Assay.
The protocols used with VCaP cells are described below. The androgen receptor ELISA assay was performed using PathScan AR ELISA (Cell Signaling Catalog #12850) according to the following assay steps:
VCaP cells are seeded at 30,000 cells/well at a volume of 200 μL/well in VCaP assay medium [Phenol red free RPMI (Gibco Cat #11835-030); 5% Charcoal Stripped (Dextran treated) FBS (Omega Scientific, Cat #FB-04); Pen/Strep Life Technologies (Gibco Cat #: 10378-016); 0.1 nM R1881 (Sigma, Cat #R0908) is added upon the start of the assay, not during initial plating of the cells) in Corning 3904 plates. The cells are grown for a minimum of 3 days.
First, cells are dosed with compounds diluted in 0.1% DMSO—use a polypropylene plate according to the following protocol: (1)(i) make 1000× stock plate in DMSO; (ii) 20 mM stock diluted 1/6.7 with DMSO (5 μL+28.3 μL DMSO)=3 mM into row H; (iii) perform serial dilutions in ½ log doses (10 μL of PROTAC+20 μL DMSO) from row H towards row B. Reserve row A for DMSO; (iv) 7 doses total (final concentration in this 1000× plate will be 3 mM, 1 mM, 333 μM, 111 μM, etc). (2)(i) Make 10× stock plate in media; (ii) transfer 2.5 μL of the 1000× stock to a new 10× stock plate (use 12 channel pipet, start at A (DMSO control) work thru H. When 247.5 μL of media is added to this plate, it will serve as a 10× stock; (iii) make media+1 nM R1881 for making 10× stock plate; (iv) add 247.5 μL of media with 1 nM R1881 to each well of the 10× stock plate, mix.
Then 22 μL of 10× stock is added to cells and incubated for 24 h. 1× Cell Signaling Cell lysis buffer is made (Catalogue #9803; comes with the kit)—prepare for 50 μL/well. Keep on ice. Media is aspirated, and 50 μL 1× cell lysis buffer/well is added. The cells are placed on ice for 10 minutes. The solution is mixed and transferred to PCR plate, and centrifuged at 4C for 10 minutes at 4000 rpm.
5 μL is transferred to fresh plate (use immediately or freeze −80 C); 115 μL ELISA Dilutant is added (0.15 ug/ml-0.075 ug/ml; comes with the PathScan ELISA).
Add 100 μL/well AR Elisa; cover and shake, 37 C for 2 hrs; dump, tap, wash 4×200 μL ELISA wash buffer; add 100 μL/well mouse AR detection Ab; cover and shake, 37 C for 1 hr; dump, tap, wash 4×200 μL ELISA wash buffer; add 100 μL/well anti-mouse—HRP conjugated Ab (comes with the kit); cover and shake, 37 C for 30 min; allow TMB reagent to come to room temperature; dump, tap, wash 4×200 μL Elisa wash buffer; tap; add 100 μL TMB, shake 5 min—while watching color. Add the stop reagent when light blue color develops. Add 100 μL Stop solution; shake and read at 450 nm.

[1] = VCaP cells; Table 36; read-out: VCaP DC50
[2] = VCaP, VCaP cells; Table 36; read-out: VCaP Dmax (%)
[3] = read-out: VCaP DC50; VCaP cells; Table 35

DC50 [1]	Dmax [2]	SMILES	Dmax (VCaP, read-out: VCaP Dmax (%))	other results
> 501 nM	< 25%	Cc1ncsc1-c1ccc([C@H](C)NC(=O)[C@@H]2C[C@@H](O)CN2C(=O)[C@@H](c2ncc(CCCCCNc3ccc(C(=O)N[C@H]4C(C)(C)[C@H](Oc5ccc(C#N)c(Cl)c5)C4(C)C)nc3)n2C)C(C)C)cc1 [Example 691, N-((1r,3r)-3-(3-chloro-4-cyanophenoxy)-2,2,4,4-tetramethylcyclobutyl)-5-((5-(2-((R)-1-((2S,4R)-4-hydroxy-2-(((S)-1-(4-(4-methylthiazol-5-yl)phenyl)ethyl)carbam-oyl)pyrrolidin-1-yl)-3-methyl-1-oxobutan-2-yl)-1-methyl-1H-imidazol-5-yl)pentyl)amino)picolin-amide]	–	–
< 50 nM	> 71%	Cc1ncsc1-c1ccc([C@H](C)NC(=O)[C@@H]2C[C@@H](O)CN2C(=O)[C@@H](NC(=O)COC2CC(N3CCN(c4ccc(C(=O)NC5C(C)(C)C(Oc6ccc(C#N)c(Cl)c6)C5(C)C)cn4)CC3)C2)C(C)(C)C)cc1 (stereo partly drawn) [Example 846, N-((1r,3R)-3-(3-chloro-4-cyanophenoxy)-2,2,4,4-tetramethylcyclobutyl)-6-(4-((1S,3R)-3-(2-(((S)-1-((2S,4R)-4-hydroxy-2-(((S)-1-(4-(4-methylthiazol-5-yl)phenyl)ethyl)carbamoyl)pyrrolidin-1-yl)-3,3-dimethyl-1-oxobutan-2-yl)amino)-2-oxoethoxy)cyclobutyl)piperazin-1-yl)nicotinamide]	–	–
–	–	Cc1ncsc1-c1ccc([C@H](C)NC(=O)[C@@H]2C[C@@H](O)CN2C(=O)[C@@H](NC(=O)COC[C@@H](O)[C@H](O)COc2ccc(-c3ccc(N4C(=S)N(c5ccc(C#N)c(C(F)(F)F)c5)C(=O)C4(C)C)cc3)cc2)C(C)(C)C)cc1 [Example 574]	> 71%	DC50 [3]: < 50 nM
–	–	Cc1ncsc1-c1ccc(CNC(=O)[C@@H]2C[C@@H](O)CN2C(=O)[C@@H](NC(=O)CNC(=O)c2ccc(Oc3ccc(C(=O)N[C@H]4C(C)(C)[C@H](Oc5ccc(C#N)c(Cl)c5)C4(C)C)cc3)cc2)C(C)(C)C)cc1 [Example 187, (2S,4R)-1-[(2S)-3,3-dimethyl-2-(2-{[4-(4-{[trans-3-(3-chloro-4-cyanophenoxy)-2,2,4,4-tetramethylcyclobutyl]carbamoyl}phenoxy)phenyl] formamido}acetamido)butanoyl]-4-hydroxy-N-{[4-(4-methyl-1,3-thiazol-5-yl)phenyl]methyl} pyrrolidine-2-carboxamide]	–	Dmax (VCaP, highest percentage of Androgen Receptor degradation observed, VCaP cells (Table 32); read-out: VCaP Dmax (%)): > 71%; DC50 (concentration that caused 50% Androgen Receptor degradation, VCaP cells (Table 32); read-out: VCaP DC50): < 50 nM
–	–	Cc1ncsc1-c1ccc(CNC(=O)[C@@H]2C[C@@H](O)CN2C(=O)[C@@H](NC(=O)COC[C@H](O)[C@@H](O)COc2ccc(-c3ccc(N4C(=S)N(c5ccc(C#N)c(C(F)(F)F)c5)C(=O)C4(C)C)cc3)cc2)C(C)(C)C)cc1 [Example 567]	> 71%	DC50 [3]: < 50 nM
< 50 nM	> 71%	Cc1ncsc1-c1ccc([C@H](C)NC(=O)[C@@H]2C[C@@H](O)CN2C(=O)[C@@H](NC(=O)CN2CCN(CCCc3ccc(C(=O)N[C@H]4C(C)(C)[C@H](Oc5ccc(C#N)c(Cl)c5)C4(C)C)cn3)CC2)C(C)(C)C)cc1 [Example 837, N-((1r,3r)-3-(3-chloro-4-cyanophenoxy)-2,2,4,4-tetramethylcyclobutyl)-6-(3-(4-(2-(((S)-1-((2S, 4R)-4-hydroxy-2-(((S)-1-(4-(4-methylthiazol-5-yl)phenyl)ethyl)carbamoyl)pyrrolidin-1-yl)-3,3-dimethyl-1-oxobutan-2-yl)amino)-2-oxoethyl)piperazin-1-yl)propyl) nicotinamide]	–	–
–	–	Cc1ncsc1-c1ccc(CNC(=O)[C@@H]2C[C@@H](O)CN2C(=O)[C@@H](NC(=O)COC[C@H](O)CCOc2ccc(-c3ccc(N4C(=S)N(c5ccc(C#N)c(C(F)(F)F)c5)C(=O)C4(C)C)cc3)cc2)C(C)(C)C)cc1 [Example 130, (2S,4R)-1-[(2S)-2-{2-[(2R)-4-[4-(4-{3-[4-cyano-3-(trifluoromethyl)phenyl]-5,5-dimethyl-4-oxo-2-sulfanylideneimidazolidin-1-yl}phenyl)phenoxy]-2-hydroxybutoxy]acetamido}-3,3-dimethylbutanoyl]-4-hydroxy-N-{[4-(4-methyl-1,3-thiazol-5-yl)phenyl]methyl}pyrrolidine-2-carboxamide]	51 to 70%	DC50 (read-out: VCaP DC50; concentration that caused 50% Androgen Receptor degradation, VCaP cells (Table 32)): < 50 nM
–	–	Cc1cn(-c2ccc([C@H](C)NC(=O)[C@@H]3C[C@@H](O)CN3C(=O)[C@@H](NC(=O)COCCCOCCCCCOc3ccc(N4C(=S)N(c5ccc(C#N)c(C(F)(F)F)c5)C(=O)C4(C)C)cc3)C(C)(C)C)cc2)cn1 [Example 663, (2S,4R)-1-((S)-2-(2-(3-((5-(4-(3-(4-cyano-3-(trifluoromethyl)phenyl)-5,5-dimethyl-4-oxo-2-thioxoimidazolidin-1-yl)phenoxy)pentyl)oxy)propoxy)acetamido)-3,3-dimethylbutanoyl)-4-hydroxy-N-((S)-1-(4-(4-methyl-1H-imidazol-1-yl)phenyl)ethyl)pyrrolidine-2-carboxamide]	< 25%	DC50 (read-out: VCaP DC50; VCaP cells; Table 36): > 501 nM

SMILES	DC50 [1]	Dmax [2]	Dmax (VCaP, read-out: VCaP Dmax (%))	other results
Cc1ncsc1-c1ccc([C@H](CO)NC(=O)[C@@H]2C[C@@H](O)CN2C(=O)[C@@H](NC(=O)CN2CCN(CCC3CCN(c4ccc(C(=O)N[C@H]5C(C)(C)[C@H](Oc6ccc(C#N)c(Cl)c6)C5(C)C)cn4)C3)CC2)C(C)(C)C)cc1 (stereo partly drawn) [Example 841, N-((1r,3r)-3-(3-chloro-4-cyanophenoxy)-2,2,4,4-tetramethylcyclobutyl)-6-(3-(2-(4-(2-(((S)-1-((2S,4R)-4-hydroxy-2-(((R)-2-hydroxy-1-(4-(4-methylthiazol-5-yl)phenyl)ethyl)carbamoyl)pyrrolidin-1-yl)-3,3-dimethyl-1-oxobutan-2-yl)amino)-2-oxoethyl)piperazin-1-yl)ethyl)pyrrolidin-1-yl)nicotinamide]	< 50 nM	–	> 71%	–
Cc1ncsc1-c1ccc([C@H](C)NC(=O)[C@@H]2C[C@@H](O)CN2C(=O)[C@@H](NC(=O)CN2CCN(CCC3(c4ccc(C(=O)N[C@H]5C(C)(C)[C@H](Oc6ccc(C#N)c(Cl)c6)C5(C)C)cc4)COC3)CC2)C(C)(C)C)cc1 [Example 744, (2S,4R)-1-((S)-2-(2-(4-(2-(3-(4-(((1r,3r)-3-(3-chloro-4-cyanophenoxy)-2,2,4,4-tetramethylcyclobutyl)carbamoyl)phenyl)oxetan-3-yl)ethyl)piperazin-1-yl)acetamido)-3,3-dimethylbutanoyl)-4-hydroxy-N-((S)-1-(4-(4-methylthiazol-5-yl)phenyl)ethyl)pyrrolidine-2-carboxamide]	> 501 nM	–	< 25%	–
